Assay: Stability of M4N formulations at room temperature (time to crystallized precipitation)
Type: physicochemical
Description: A 10 mL solution of M4N at a concentration of about 10 mg/mL in 40% BP-β-CD was made as follows. About 10 mL of the 40% HP-β-CD solution were added to a glass beaker containing a stir bar. The beaker was placed on a magnetic plate and the stir bar was set to stir at medium speed. About […] of M4N were slowly added to the 40% HP-β-CD in the center of the beaker with the aid of a spatula. The M4N/40% HP-β-CD mixture was stirred for 2 hr or until all M4N was uniformly suspended without any clumps being present. The M4N/40% HP-β-CD mixture was optionally heated at 80° C. for about 30 min. (or longer if a larger volume of solution was desired, for example, 1 hr at 80° C. for 100 mL of the M4N/HP-β-CD mixture), or longer as needed to ensure complete dissolution of M4N. […] The final M4N/40% HP-β-CD solution was stored at room temperature and was kept protected from light. This process may be scaled up or down to obtain the requisite volume or concentration of M4N. Formulations containing M4N in other cyclodextrin solutions may be similarly made, such as, for example, by substituting HP-β-CD in the process described above with other cyclodextrins.
A 100 mL solution of M4N at a concentration of about 25 mg/mL in PEG 300 was made as follows. About 100 mL of PEG 300 were added to a glass beaker containing a stir bar. The beaker was placed on a magnetic plate and the stir bar was set to stir at medium speed. About 2.5 g of M4N were slowly added to the PEG 300 in the center of the beaker with the aid of a spatula to prevent M4N from sticking to the beaker wall. The M4N/PEG 300 mixture was stirred for 24 hr or until all M4N had dissolved or was uniformly suspended without any clumps being present. The M4N/PEG 300 mixture was optionally heated at about 60° C. for about 30 min. (or longer if a larger volume of solution was desired, for example, 1 hr at 60° C. for 500 mL of the M4N/PEG 300 mixture), or longer as needed to ensure complete dissolution of M4N. […] If crystals formed, the M4N/PEG 300 solution could be heated again at 60° C. for about 1 hr, with stirring, on a hot magnetic plate until all M4N was dissolved back in solution. The final M4N/PEG 300 solution was stored at room temperature and was kept protected from light. This process may be scaled up or down to obtain the requisite volume or concentration of M4N. Formulations containing M4N in other PEGs may be similarly made, such as, for example, by substituting PEG 300 in the process described above with PEG 400 or PEG 400 monolaurate.
Formulations containing M4N in other water-insoluble lipids combined with non-ionic, ionic or amphipathic surfactants or water-soluble organic solvents may be similarly made, such as, for example, by substituting sesame oil in the process described above with corn oil, olive oil, soybean oil, peppermint oil, or mineral oil and substituting Tween® 20 with Tween® 80, TPGS, lecithin, PEG 300, PEG 400, PEG 400 monolaurate, glycerol, PVP, PG, or other solubilizing agents, and combinations thereof. Stability in reference to the clear liquid solutions herein refers to the time it takes to form crystallized precipitation in solution. A stable solution is one that is clear and free of particulates for an extended period of time.

## COc1ccc(C[C@@H](C)[C@@H](C)Cc2ccc(OC)c(OC)c2)cc1OC [Formulation M4N, meso-1,4-bis(3,4-dimethoxyphenyl)-2,3-dimethylbutane]
M4N 1 mg/mL suspension in 50% HP-β-CD, 0.5% CMC
  Stability at Room Temperature: >7 days
M4N 2.4 mg/mL, Sesame Oil, Tween ® 20 and Glycerol, 10% Oil emulsion in 90% saline
  Stability Time at Room Temperature: <1 days
M4N 2.9 mg/mL, Sesame Oil and Tween ® 20, 10% Oil emulsion in 90% saline
  Stability Time at Room Temperature: <3 days
M4N 3.13 mg/mL in 5% HP-β-CD, 12.5% PEG 300 (v/v)
  Stability at Room Temperature: <7 days
M4N 4.17 mg/mL in 6.7% HP-β-CD, 16.7% PEG 300 (v/v)
  Stability at Room Temperature: >7 days
M4N 6.25 mg/mL in 10% HP-β-CD, 25% PEG 300 (v/v)
  Stability at Room Temperature: >7 days
M4N 10 mg/mL in 30% HP-β-CD
  Stability at Room Temperature: <3 days
M4N 10 mg/mL in 32% HP-β-CD, 20% PEG 400 (v/v)
  Stability at Room Temperature: >7 days
M4N 10 mg/mL in 50% HP-β-CD
  Stability at Room Temperature: >7 days
M4N 10 mg/mL in 50% HP-β-CD in saline
  Stability at Room Temperature: >7 days
M4N 10 mg/mL in Peppermint Oil
  Stability Time at Room Temperature: >3 days
M4N 10 mg/mL in Tween® 20
  stable at room temperature: more than 7 days
M4N 10 mg/mL in Tween® 80
  stable at room temperature: more than 3 days
M4N 12.5 mg/mL in 12.5% HP-β-CD, 50% PEG 300 (v/v)
  Stability at Room Temperature: <1 days
M4N 12.5 mg/mL in 12.5% HP-β-CD, 50% PEG 400 (v/v)
  Stability at Room Temperature: <1 days
M4N 12.5 mg/mL in 15% HP-β-CD, 50% PEG 300 (v/v)
  Stability at Room Temperature: <7 days
M4N 12.5 mg/mL in 15% HP-β-CD, 50% PEG 400 (v/v)
  Stability at Room Temperature: <3 days
M4N 12.5 mg/mL in 20% HP-β-CD, 50% PEG 300 (v/v)
  Stability at Room Temperature: >7 days
M4N 12.5 mg/mL in 20% HP-β-CD, 50% PEG 400 (v/v)
  Stability at Room Temperature: <7 days
M4N 12.5 mg/mL in 30% HP-β-CD, 25% PEG 400 (v/v)
  Stability at Room Temperature: >7 days
M4N 12.9 mg/mL in 23% HP-β-CD, 43% PEG 400 (v/v)
  Stability at Room Temperature: >7 days
M4N 12.9 mg/mL in 23% HP-β-CD, 43 PEG 300 (v/v)
  Stability at Room Temperature: >7 days
M4N 13.3 mg/mL in 27% HP-β-CD, 33% PEG 300 (v/v)
  Stability at Room Temperature: >7 days
M4N 13.3 mg/mL in 27% HP-β-CD, 33% PEG 400 (v/v)
  Stability at Room Temperature: >7 days
M4N 20 mg/mL in Tween® 20
  stable at room temperature: more than 7 days
M4N 20 mg/mL suspension in 50% HP-β-CD, 0.5% CMC
  Stability at Room Temperature: >7 days
M4N 24.3 mg/mL in 75% Sesame Oil, 9% Tween ® 20, 16% Glycerol
  Stability Time at Room Temperature: <7 days
M4N 29 mg/mL in 89% Sesame Oil, 11% Tween ® 20
  Stability Time at Room Temperature: >7 days
M4N 40 mg/mL in 50% Peppermint Oil, 50% Tween ® 20
  Stability Time at Room Temperature: >3 days
M4N 40 mg/mL in Tween® 20
  stable at room temperature: less than 3 days
M4N 50 mg/mL in Camillia Oil
  Stability Time at Room Temperature: >7 days
M4N 50 mg/mL in Mineral Oil
  Stability Time at Room Temperature: <1 days
M4N 50 mg/mL in Tween® 80
  stable at room temperature: less than 1 day
M4N 60 mg/mL in 50% Peppermint Oil, 50% Tween ® 20
  Stability Time at Room Temperature: >3 days
M4N 60 mg/mL in Peppermint Oil
  Stability Time at Room Temperature: <3 days
M4N 60 mg/mL suspension in 50% HP-β-CD, 0.5% CMC
  Stability at Room Temperature: >7 days
M4N 80 mg/mL in Tween® 20
  stable at room temperature: less than 3 days
M4N 100 mg/mL in Peppermint Oil
  Stability Time at Room Temperature: <1 days
M4N 125 mg/mL in Peppermint Oil
  Stability Time at Room Temperature: <1 days
M4N in glycerol monooleate (Glymo), heated to 60° C., cooled
  stability of the suspension at room temperature: remained stable for two weeks
M4N up to 60 mg/mL in 50% Tween® 20 and 50% PEG 400
  stable at room temperature: more than 3 days
PEG 400 mono-laurate 100%, M4N 20 mg/mL
  Stability Time at Room Temperature: >3 days
PEG 400 mono-laurate 100%, M4N 50 mg/mL
  Stability Time at Room Temperature: <1 days
Propylene Glycol 100% (w/v), M4N 1 mg/mL
  Stability Time at Room Temperature: <1 days
Propylene Glycol 100% (w/v), M4N 10 mg/mL
  Stability Time at Room Temperature: <1 days
Propylene Glycol 100% (w/v), M4N 20 mg/mL
  Stability Time at Room Temperature: <1 days
TPGS 20% (w/v), M4N 60 mg/ml, suspension
  Stability at Room Temperature: >3 days
TPGS 20% (w/v), M4N 100 mg/ml, suspension
  Stability at Room Temperature: >3 days

Reference: patent US20090022803A1, “Oral Formulations For Delivery of Catecholic Butanes Including Ndga Compounds” (priority 2005, published 2009)
